Tests used:
[1] = tested on: CYP3A4; assay: CYP3A4 promoter, expression and activity in Ishikawa cells (reporter assay, qPCR, western blot, specific substrate assay); type: cell-based; settings: Dioxin 0.1-10 nM
Description: (§1) Ishikawa cells were treated with Dioxin (0.1-10 nM) and KLF11 or EV-control. Treatment effects were determined on CYP3A4, a well-characterized CYP450 gene that is also an endometrial estrogen metabolizing enzyme. Promoter and gene expression were determined by reporter assay, qPCR, and western blot. CYP3A4 activity was determined by a specific substrate assay. Promoter histone code was evaluated by ChIP in Ishikawa treated with Dioxin and Histone Acetyl Transferase Inhibitor (HATI) or controls. The Dioxin-endometriosis model was created per published protocols in wild type mice gavaged with Dioxin (3 μg/kg) or vehicle. Animals were additionally treated 0.2 μg/gm/day of HATI or vehicle control (N=10/grp). Disease progression was evaluated in 12 weeks by morphometry, IHC, and qPCR.

[2] = tested on: endometriotic progression; assay: Dioxin-endometriosis model in wild type mice; type: in vivo; settings: wild type mice gavaged with Dioxin 3 μg/kg, HATI 0.2 μg/gm/day or vehicle
Description: as §1

[3] = tested on: endometriotic lesions; assay: Endometriotic lesion model: autologous uterine segments implanted onto the peritoneum of Klf11-/- or wt mice; type: in vivo; settings: wt animals; 50 μg/g of body weight; evaluated three weeks after treatment; vs DMSO
Description: FIG. 4 is a schematic diagram showing the design of the mouse endometriosis model. Two 0.5 cm uterine fragments are everted, so that the endometrium faces the peritonel cavity. These are then sutured to the flank peritoneum on either side by 8/0 proline microfilament suture.
FIG. 5 contains photographs of Klf11^-/- and wt animals induced to produce endometriosis lesions and treated with DMSO (control), garcinol (0.2 μg/g of body weight, or suberoyl anilide hydroxamic acid (SAHA; 50 μg/g of body weight). SAHA is also known as N-hydroxy-N′-phenyl-octanediamide or vorinostat. Endometriotic progression was evaluated three weeks after treatment. The arrows point to and define lesion associated scarring.
In another experiment, endometriotic lesions were induced in Klf11^-/- or wildtype (wt) mice (n=10 for each group) by implanting autologous 5 mm uterine segments onto the peritoneum (FIGS. 3 and 4). […] In addition, COL1A1 polypeptide expression was increased in implants from Klf11^-/- animals (FIGS. 3D and 3H) as compared to those from wt animals (FIGS. 3C and 3G).

Row | Compound | CYP3A4 activation [1] | lesional CYP3A4 expression ([2]; 12 weeks) | Score ([2]; 12 weeks, P<0.05) | endometriotic disease progression ([2]; evaluated in 12 weeks by morphometry, IHC, qPCR) | fibrosis [3]
1 | Clc1cc2c(cc1Cl)Oc1cc(Cl)c(Cl)cc1O2 [Dioxin, 2,3,7,8-tetrachlorodibenzodioxin] | dose-dependently activated | lesional epithelial CYP3A4 activation | 26.4 | prolific endometriotic progression | 
2 | O=C(CCCCCCC(=O)Nc1ccccc1)NO [SAHA, N-hydroxy-N′-phenyl-octanediamide] |  |  |  |  | induction of de novo fibrosis
